From patent US20260041732A1, “USE OF APELIN FOR THE TREATMENT OF LYMPHEDEMA” (INSTITUT NATIONAL DE LA SANTE ET DE LA RECHERCHE MEDICALE, priority 2022, published 2026)

B1: VEGF-C: vascular endothelial growth factor C; media containing VEGF-C used as positive control on HDLEC (protein, listed as Homo sapiens)
chain: MHLLGFFSVACSLLAAALLPGPREAPAAAAAFESGLDLSDAEPDAGEATAYASKDLEEQLRSVSSVDELMTVLYPEYWKMYKCQLRKGGWQHNREQANLNSRTEETIKFAAAHYNTEILKSIDNEWRKTQCMPREVCIDVGKEFGVATNTFFKPPCVSVYRCGGCCNSEGLQCMNTSTSYLSKTLFEITVPLSQGPKPVTISFANHTSCRCMSKLDVYRQVHSIIRRSLPATLPQCQAANKTCPTNYMWNNHICRCLAQEDFMFSSDAGDDSTDGFHDICGPNKELDEETCQCVCRAGLRPASCGPHKELDRNSCQCVCKNKLFPSQCGANREFDENTCQCVCKRTCPRNQPLNPGKCACECTESPQKCLLKGKKFHHQTCSCYRRPCTNRQKACEPGFSYSEEVCRCVPSYWKRPQMS

How the values were obtained:
[1] = tested on: afferent collecting lymphatic vessels to the popliteal lymph node; test: Collecting vessel contraction measures (intravital imaging); type: in vivo, mouse; settings: L-NAME in drinking water 7 days
Description: Vessel contraction measurement of afferent collecting lymphatic vessels to the popliteal lymph node (PLN) were performed as described previously (Liao S. et al.). Briefly mice were anesthetized with an intraperitoneal injection of ketamine (100 mg/Kg) and xylazine (10 mg/kg). 6 μL of FITC-Dextran was injected into the footpad of the lower right limb. The skin is carefully removed to expose afferent collecting lymphatic vessels to the PLN. Mouse is then placed into a petri dish and onto the stage of an inverted microscope (Leica, DMi8). 4 videos of 90 sec were acquired per mice and the number of contraction and dilatation (difference between maximum and minimum diameter) was analysed using Fiji software. To assess the effect of Apelin, lentiviral vector was injected into the derm in the lower right limb 7 days before the experiment. For L-NAME study, mice were allowed to drink freely for 7 days.

C57B1/6 female mice [2] = test: Evaluation of dermis fibrosis, Masson's trichrome coloration; type: in vivo, mouse; settings: lymphedema limb skin
Description: Dermis fibrosis was evaluated with Masson's trichrome coloration (MST-100T, Cliniscience). Skin sections were deparraffinized and tissue were stained according the manufacturer's recommendations. Images were acquired on a nanozoomer slide scanner. Dermis size quantification was performed using at least 10 measurements of the length between epidermis and hypodermis per field.

C57B1/6 female mice [3] = test: Mouse model of secondary lymphedema, limb size measured using caliper; type: in vivo; settings: LV-apelin treated mice submitted to L-NAME treatment
Description: Mouse procedures were performed in accordance with EU and national regulation. C57B1/6 mouse were provided by Envigo. All experiments have been approved by the local branch Inserm Rangueil-Purpan of the Midi-Pyrénées ethics committee. Secondary lymphedema was established as previously described (Morfoisse et al. 2018). Briefly, lymphedema was established in the left upper limb of 6 weeks-old C57B1/6 female mice. A partial mastectomy of the second mammary gland is performed in association with axillary and brachial lymphadenectomy. Limb size was measured over time in the axillary region using caliper. Mice sustained edema for a period of 2 weeks. The day of the surgery, PBS or apelin lentiviral vector were injected in intradermic in the lymphedema limb (3 injections of 4 μL). […] For L-NAME (N^G-nitro-L-arginine methyl ester) (Sigma) treatment, L-NAME was resuspended in water (1 mg/ml) and mice were allowed to drink freely for 7 days.

C57B1/6 female mice [4] = test: Lymphangiography with FITC-Dextran in lymphedema mouse model; type: in vivo; settings: two weeks after surgery
Description: Two weeks after surgery, mice were anesthetized with an intraperitoneal injection of ketamine (100 mg/kg) (Zoletil 100, Virbac) and xylazine (10 mg/kg) (Rompun 2%, Bayer). FITC-Dextran ([…], 2 mg/mL, Sigma) was injected into the footpad of lymphedema and control limb. The fluorescent molecule was taken up by the lymphatics and excluded from the blood vessels. After 5 min, the skin was analyzed under the modular stereo microscope discovery. V12 stereo (Zeiss).

C57B1/6 female mice [5] = test: Histology of skin sections, Lyve1 and CD31 immunostaining; type: in vivo, mouse; settings: lymphedema limb skin
Description: Skin of lymphedema and control limb were collected 2 weeks after surgery and fixed in 10% neutral buffered formalin O/N at 4° C. Tissue are then embedded in paraffin and sectioned on a microtome. 5 μm sections were cut and placed on Superfrost Plus slides. Tissue were deparaffinized, rehydrated and antigen unmasking was realized with pH 9 Tris solution (H-3301, Vector Laboratories) 5 min three times in a microwave. After cooling, slides were washed in PBS and then blocked with 5% BSA solution at room temperature in humid chamber. Sections were incubated with primary antibodies O/N at 4° C. (Goat anti-murine Lyvel, R&D AF2125; rabbit anti-CD31, abcam Ab28364) and washed three times in PBS. Sections were incubated with the corresponding secondary antibodies conjugated to Alexa-488 or -594 for 1h at room temperature au 1/400 dilution. DNA was stained with DAPI. Slides were mounted with Dako Fluorescence Mounting Medium (S3023). Images were acquired a fluorescent inverted microscope (Leica, DMi8). Images were analysed with Fiji software.

[6] = tested on: Human dermal lymphatic endothelial cells (HDLEC); test: Bulk RNA-sequencing, differential gene expression and GO analysis; type: cell-based; settings: compared to WT
Description: Human dermal lymphatic endothelial cells (HDLEC) (single donor, juvenile foreskin, Promocell, C-12216, >95% of the cells are CD31 positive and podoplanin positive) were cultured in Endothelial Cell Media MV2 (EGM-MV2, Promocell, C-22121). NIH3T3 were cultured in Dulbecco's modified Eagle's medium (DMEM, Sigma, D6429) supplemented with 10% fetal bovine serum (FBS, Gibco, 10270-06) and 1% penicillin-streptomycin. Endothelial cells were used at passage 3-6 and human fibroblasts were used at passage 4-7. Cells were cultured at 37° C. in a 5% CO2 incubator. Culture medium was changed 3 times a week, and the cells were passaged ⅓. For collecting conditioned media, NIH3T3 were grown in 10 cm dishes, after reaching confluence, medium was removed and the cells were washed once with PBS. NIH3T3 were cultured overnight in 5 mL reduced serum medium optiMEM (Gibco), the medium was then collected and used for experiments. HDLEC were treated with 50% conditioned media/50% MV2-05% FBS. Total RNA from HDLEC transduced or not with Apelin Lentivector were prepared using the RNeasy mini kit (Qiagen 74106). Total RNA were then subjected to ribosomal-RNA depleted RNA sequencing (RNA-Seq) protocol performed by Genewiz company using Illumina HiSeq, PE 2×150 configuration. Sequence reads were trimmed to remove possible adapter sequences and nucleotides with poor quality using Trimmomatic v.0.36. The trimmed reads were mapped to the Homo sapiens GRCh38 reference genome available on ENSEMBL using the STAR aligner v.2.5.2b. The STAR aligner is a splice aligner that detects splice junctions and incorporates them to help align the entire read sequences. BAM files were generated as a result of this step. Unique gene hit counts were calculated by using feature Counts from the Subread package v.1.5.2. The hit counts were summarized and reported using the gene_id feature in annotation file. Only unique reads that fell within exon regions were counted. Distribution of read counts in libraries were examined before and after normalization. The original read counts were normalized to adjust for various factors such as variations of sequencing yield between samples. These normalized read counts were used to accurately determine differentially expressed genes. Data quality assessments were performed to detect any samples that are not representative of their group, and thus, may affect the quality of the analysis. The overall similarity among samples were assessed by the Euclidean distance between samples. This method was used to examine which samples are similar/different to each other and if they fit to the expectation from the experiment design. The shorter the distance, the more closely related the samples are. Samples were then clustered by using the distance. A principal component analysis was also performed to reveal the similarity between samples based on the distance matrix. After extraction of gene hit counts, the gene hit counts table was used for downstream differential expression analysis. Using DESeq2, a comparison of gene expression between Apelin transduced LEC against non-transduced LEC was performed. The Wald test was used to generate p-values and log2 fold changes. […] The global transcriptional change across the two groups compared was visualized by a volcano plot. Each data point in the volcano plot represents a gene. The log2 fold change of each gene is represented on the x-axis and the log10 of its adjusted p-value is on the y-axis.

[7] = tested on: Human dermal lymphatic endothelial cells (HDLEC); test: Immunoblotting of AKT, ERK and eNOS phosphorylation; type: cell-based; settings: conditioned media
Description: Human dermal lymphatic endothelial cells (HDLEC) (single donor, juvenile foreskin, Promocell, C-12216, >95% of the cells are CD31 positive and podoplanin positive) were cultured in Endothelial Cell Media MV2 (EGM-MV2, Promocell, C-22121). NIH3T3 were cultured in Dulbecco's modified Eagle's medium (DMEM, Sigma, D6429) supplemented with 10% fetal bovine serum (FBS, Gibco, 10270-06) and 1% penicillin-streptomycin. Endothelial cells were used at passage 3-6 and human fibroblasts were used at passage 4-7. Cells were cultured at 37° C. in a 5% CO2 incubator. Culture medium was changed 3 times a week, and the cells were passaged ⅓. For collecting conditioned media, NIH3T3 were grown in 10 cm dishes, after reaching confluence, medium was removed and the cells were washed once with PBS. NIH3T3 were cultured overnight in 5 mL reduced serum medium optiMEM (Gibco), the medium was then collected and used for experiments. HDLEC were treated with 50% conditioned media/50% MV2-05% FBS.
Cells were scrapped and lysed in RIPA buffer (RIPA 2X, Biotech RB4476) supplemented with phosphatase inhibitor (PhosSTOP Easypack, Roche0490687001) and protease inhibitors (protease inhibitor cocktail, Sigma Aldrich). Lysates were centrifuged at 13500 g for 10 minutes at 4° C. Supernatants were then collected and mix with Laemmli buffer containing dithiothreitol (DTT 1 mM). Protein were resolved on 4-15% SDS-PAGE gels and transferred to nitrocellulose membrane (Trans-Blot Turbo RTA transfer kit, #1704271, Biorad). Membranes were blocked for 1h at room temperature in 5% BSA-TBS-T (TBS-0.1% Tween 20) and probed with primary antibody overnight at 4° C. Antibody used are the following: Phospho AKT: AKT-p ser473 (CS #4060S), AKT: santa cruz H136 (S8312), Phospho ERK: ERK1/2-p (MAPKp42/44) (Thr202/Thr204) (cell signalling #9106), ERK ERK1/2-(MAPKp42/44) (Thr202/Thr204) (cell signalling #9102), Phospho eNOS (cell signalling #9571S), eNOS (cell signalling #5880S), E2F8 (Abcam, AB109596), VEGFR3 (RID system AF349), Phospho-VEGFR3 (Affinity AF3676), CCBE1 (Sigma SAB1402017).
After three washes in TBS-T, membranes were probed with HRP-conjugated secondary antibodies at 1/10000 dilution. Signals were visualized with chemiluminescence detection reagent (Sigma) on a Chemidoc (Biorad) digital acquisition system.

| Molecule | effect on apelin-stimulated collector dilatation [1] | fibrosis (C57B1/6 female mice [2]) | effect on apelin benefit on lymphedema (limb diameter) (C57B1/6 female mice [3]) | lymphatic vessel morphology / remodelling (lymphangiography) (C57B1/6 female mice [4]) | lymphatic vessel dilatation (vessel area / diameter) (C57B1/6 female mice [5]) | expression of genes related to VEGFC maturation (ADAMTS2, CCBE1) [6] | eNOS phosphorylation ([7]; HDLEC) | AKT activation (phosphorylation) ([7]; 24 h time course) | ERK activation ([7]; 24 h time course) |
| --- | --- | --- | --- | --- | --- | --- | --- | --- | --- |
| COC(=O)[C@@H](N)CCCNC(=N)N[N+](=O)[O-] [L-NAME, N^G-nitro-L-arginine methyl ester] | completely reversed | no effect on fibrosis | reversed the beneficial effect of apelin on lymphedema | reverse apelin effect on lymphatic vascular network | inhibited | – | – | – | – |
| B1 | – | – | – | – | – | improved | observed | strong activation | strong activation |
